Results from patent publication US9783536B2, “Nitrogen-containing heterocyclic compound or salt thereof” (FUJIFILM Corporation, priority 2013, dated 2017).
Where two headings read alike, the source gives them in different places.

What was measured:
CHO-K1 cells = test: CHO cell toxicity test; assay type: cell-based, Chinese hamster; settings: Cricetulus griseus; CHO-K1 cells, 24 hours culture with compound, CellTiter-Glo; read-out: IC50 value (concentration at which the number of viable cells was suppressed to 50% or less)
Summary of the method: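 CHO-K1 cells were cultured 24 h, then exposed 24 h to compound at final 25.00 to 0.20 μmol/L in F-12 with 2% FCS. Viability read by CellTiter-Glo luminescence; inhibition % = 100 − (treated/untreated signal)×100.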

[1] = biological target: T1, GST fusion human ERK2 protein (Homo sapiens, UniProt P28482); test: ERK2 enzyme assay (2); assay type: biochemical; settings: read-out: ERK2 enzyme inhibitory activity (2)
T1 construct: purchased Carna Biosciences, Inc; host or cells: E. coli expression system
T1 sequence (P28482 whole entry, the tested form may be a part): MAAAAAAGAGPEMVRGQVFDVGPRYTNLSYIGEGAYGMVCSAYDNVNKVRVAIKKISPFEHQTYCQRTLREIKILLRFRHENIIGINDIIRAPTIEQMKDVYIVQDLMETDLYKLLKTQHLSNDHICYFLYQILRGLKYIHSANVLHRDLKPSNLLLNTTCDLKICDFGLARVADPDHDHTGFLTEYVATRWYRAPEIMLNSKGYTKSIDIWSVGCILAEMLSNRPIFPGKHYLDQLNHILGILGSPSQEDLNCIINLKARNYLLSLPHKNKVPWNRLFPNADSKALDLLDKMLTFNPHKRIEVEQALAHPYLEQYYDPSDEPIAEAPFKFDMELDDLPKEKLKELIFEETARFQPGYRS
Summary of the method: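 IC50 values come from mobility-shift measurement of phosphorylated versus unphosphorylated 5-FAM peptide substrate after EDTA quench. Beforehand, compound and 1.25 nmol/L E. coli-expressed GST–human ERK2 stood 15 min at room temperature (pH 7.5), then 1 mmol/L ATP and 4.25 μmol/L substrate (final) were added for 120 min at 25 °C.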

human PI3Kα protein = biological target: T2, human PI3Kα protein (Homo sapiens, UniProt P42336); test: PI3Kα enzyme assay (ADP-Glo); assay type: biochemical; settings: read-out: PI3Kα enzyme inhibitory activity
T2 construct: purchased Carna Biosciences, Inc; host or cells: baculovirus expression system
T2 sequence (P42336 whole entry): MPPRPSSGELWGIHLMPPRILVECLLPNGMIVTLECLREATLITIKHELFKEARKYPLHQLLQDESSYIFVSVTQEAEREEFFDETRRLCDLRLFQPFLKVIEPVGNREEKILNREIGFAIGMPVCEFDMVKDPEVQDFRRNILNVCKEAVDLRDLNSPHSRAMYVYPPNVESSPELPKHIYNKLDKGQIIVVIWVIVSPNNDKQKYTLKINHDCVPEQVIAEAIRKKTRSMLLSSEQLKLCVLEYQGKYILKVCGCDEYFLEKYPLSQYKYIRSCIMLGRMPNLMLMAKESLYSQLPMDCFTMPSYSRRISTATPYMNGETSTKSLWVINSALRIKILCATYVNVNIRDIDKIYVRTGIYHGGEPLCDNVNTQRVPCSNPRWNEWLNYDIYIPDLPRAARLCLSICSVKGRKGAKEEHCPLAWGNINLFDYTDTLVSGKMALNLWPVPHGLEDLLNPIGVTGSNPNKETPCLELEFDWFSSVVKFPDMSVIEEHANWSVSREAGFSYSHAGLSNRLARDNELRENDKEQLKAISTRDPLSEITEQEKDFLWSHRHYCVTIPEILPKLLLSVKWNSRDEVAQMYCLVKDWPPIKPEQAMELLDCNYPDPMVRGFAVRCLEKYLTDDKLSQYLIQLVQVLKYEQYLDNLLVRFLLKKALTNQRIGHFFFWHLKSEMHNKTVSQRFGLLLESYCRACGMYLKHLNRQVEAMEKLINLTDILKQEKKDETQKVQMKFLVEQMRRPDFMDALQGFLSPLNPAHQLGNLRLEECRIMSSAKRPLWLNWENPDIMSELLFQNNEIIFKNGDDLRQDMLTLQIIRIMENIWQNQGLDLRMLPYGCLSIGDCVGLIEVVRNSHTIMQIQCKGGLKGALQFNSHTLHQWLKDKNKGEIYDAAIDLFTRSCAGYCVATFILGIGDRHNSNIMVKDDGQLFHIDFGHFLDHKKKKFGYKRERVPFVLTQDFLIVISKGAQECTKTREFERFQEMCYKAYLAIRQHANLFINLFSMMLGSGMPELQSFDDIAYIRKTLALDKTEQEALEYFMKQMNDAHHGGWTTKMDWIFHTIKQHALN
T2 sequence (P27986 whole entry partner): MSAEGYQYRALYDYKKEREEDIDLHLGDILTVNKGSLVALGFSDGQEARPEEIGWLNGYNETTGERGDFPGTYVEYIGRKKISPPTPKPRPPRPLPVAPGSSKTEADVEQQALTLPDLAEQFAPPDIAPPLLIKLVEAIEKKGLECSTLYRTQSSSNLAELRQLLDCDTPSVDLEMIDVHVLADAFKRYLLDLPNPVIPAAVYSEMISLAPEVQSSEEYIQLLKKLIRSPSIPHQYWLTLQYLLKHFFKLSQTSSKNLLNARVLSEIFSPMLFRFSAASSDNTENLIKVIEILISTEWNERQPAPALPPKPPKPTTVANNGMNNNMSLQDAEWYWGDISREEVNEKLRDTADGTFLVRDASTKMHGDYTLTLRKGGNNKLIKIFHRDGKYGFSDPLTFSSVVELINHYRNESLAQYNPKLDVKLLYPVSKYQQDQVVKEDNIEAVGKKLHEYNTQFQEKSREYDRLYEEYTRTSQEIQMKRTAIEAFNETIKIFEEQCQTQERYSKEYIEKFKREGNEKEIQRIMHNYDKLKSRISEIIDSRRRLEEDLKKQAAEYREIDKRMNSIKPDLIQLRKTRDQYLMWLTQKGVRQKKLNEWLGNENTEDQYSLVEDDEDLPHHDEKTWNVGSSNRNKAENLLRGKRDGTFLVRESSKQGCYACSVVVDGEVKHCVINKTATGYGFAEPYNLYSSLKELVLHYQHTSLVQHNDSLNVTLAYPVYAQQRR
Summary of the method: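 Biotinylated human PI3Kα (baculovirus-expressed, 4.5 nmol/L) pre-incubated 15 min with compound in Tris-HCl pH 7.5, MgCl2, BSA; reaction 60 min at 25° C with 50 μmol/L PIP2 and 100 μmol/L ATP final. ADP quantified by ADP-Glo luminescence; IC50 calculated.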

[2] = biological target: T1, GST fusion human ERK2 protein; test: ERK2 enzyme assay (1); assay type: biochemical; settings: read-out: ERK2 enzyme inhibitory activity (1)
Summary of the method: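 IC50 derived from the proportion of phosphorylated 5-FAM peptide, separated from unphosphorylated peptide by microfluidic mobility shift. Compound was first preincubated 15 min at room temperature with 2.5 nmol/L kinase at pH 7.5, then 43.1 μmol/L ATP plus 4.25 μmol/L substrate reacted 120 min at 25 °C.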

[3] = 4.5 nmol/L PI3Kα, PIP2 50 μmol/L, ATP 100 μmol/L
[4] = 2.5 nmol/L ERK2, ATP 43.1 μmol/L

Row | Structure (SMILES) | IC50 (CHO-K1 cells) | IC50 ([1]; 1.25 nmol/L ERK2, ATP 1 mmol/L) | IC50 (human PI3Kα protein; [3]) | IC50 [2, 4] | IC50 ([1]; ERK2 enzyme assay (2)) | IC50 (human PI3Kα protein) | IC50 ([2]; ERK2 enzyme assay (1))
1 | CC(C)c1cnnc(Nc2ccc3ncc(-c4cnn(C)c4)cc3n2)c1 [Example 0145] | ≥ 25000 nM | < 1000 nM | < 1000 nM | < 1000 nM | – | – | –
2 | CCc1cnnc(Nc2ccc3ncc(-c4cnn(CCCN5CCCC5)c4)cc3n2)c1 [Example 0291] | ≥ 25000 nM | – | – | – | < 1000 nM | < 1000 nM | < 1000 nM
3 | c1nc2ccc(Nc3cc(C4CCC4)cnn3)nc2cc1-c1cnn(CCCN2CCCC2)c1 [Example 0015, N-(5-cyclobutylpyridazin-3-yl)-7-(1-(3-(pyrrolidin-1-yl)propyl)-1H-pyrazol-4-yl)-1,5-naphthyridine-2-amineformate] | ≥ 25000 nM | < 1000 nM | < 1000 nM | < 1000 nM | – | – | –
4 | CC(C)c1cnnc(Nc2ccc3ncc(-c4cnn(CCCN5CCOCC5)c4)cc3n2)c1 [Example 0368] | ≥ 25000 nM | – | – | – | < 1000 nM | < 1000 nM | < 1000 nM
5 | CC(C)c1cnnc(Nc2ccc3ncc(-c4cnn(CCCN5CCCC5)c4)cc3n2)c1 [Example 0148] | ≥ 25000 nM | < 1000 nM | < 1000 nM | < 1000 nM | – | – | –
6 | c1cnnc(Nc2ccc3ncc(-c4cnn(CCCN5CCCC5)c4)cc3n2)c1 [Example 0137, N-(pyridazin-3-yl)-7-(1-(3-(pyrrolidin-1-yl)propyl)-1H-pyrazol-4-yl)-1,5-naphthyridine-2-amine] | ≥ 25000 nM | < 1000 nM | < 1000 nM | < 1000 nM | – | – | –
7 | Cc1nnc(Nc2ccc3ncc(-c4cnn(C)c4)cc3n2)s1 [Example 0027] | ≥ 25000 nM | < 1000 nM | < 1000 nM | < 1000 nM | – | – | –
8 | Cc1cnnc(Nc2ccc3ncc(-c4cnn(C)c4)cc3n2)c1 [Example 0139] | ≥ 25000 nM | < 1000 nM | < 1000 nM | < 1000 nM | – | – | –
9 | COc1c(-c2cnn(C)c2)cnc2ccc(Nc3nnc(C4CCCC4)s3)nc12 [Example 0355, 5-cyclopentyl-N-(8-methoxy-7-(1-methyl-1H-pyrazol-4-yl)-1,5-naphthyridin-2-yl)-1,3,4-thiadiazole-2-amine] | ≥ 25000 nM | – | – | – | < 1000 nM | < 1000 nM | < 1000 nM
10 | Cc1c(-c2cnc3ccc(Nc4nnc(C5CCCC5)s4)nc3c2)cnn1C [Example 0348] | ≥ 25000 nM | – | – | – | < 1000 nM | 1000 to 10000 nM | < 1000 nM
11 | Cc1[nH]ncc1-c1cnc2ccc(Nc3nnc(C4CCCC4)s3)nc2c1 [Example 0214] | ≥ 25000 nM | – | – | – | < 1000 nM | 1000 to 10000 nM | < 1000 nM
12 | CCCCc1nn(C)cc1-c1cnc2ccc(Nc3nnc(C(C)C)s3)nc2c1 [Example 0130] | ≥ 25000 nM | < 1000 nM | < 1000 nM | < 1000 nM | – | – | –
13 | Cc1nn(C)cc1-c1cnc2ccc(Nc3nnc(C4CCCC4)s3)nc2c1 [Example 0347] | ≥ 25000 nM | – | – | – | < 1000 nM | < 1000 nM | < 1000 nM
14 | Cn1cc(-c2cnc3ccc(Nc4nnc(N5CCOCC5)s4)nc3c2)cn1 [Example 0226, N-(7-(1-methyl-1H-pyrazol-4-yl)-1,5-naphthyridin-2-yl)-5-morpholino-1,3,4-thiadiazole-2-amine] | ≥ 25000 nM | – | – | – | < 1000 nM | 1000 to 10000 nM | < 1000 nM
15 | Cc1nn(CCCN2CCOCC2)cc1-c1cnc2ccc(Nc3cc(C(C)C)cnn3)nc2c1 [Example 0384, N-(5-isopropylpyridazin-3-yl)-7-(3-methyl-1-(3-morpholinopropyl)-1H-pyrazol-4-yl)-1,5-naphthyridine-2-amine] | ≥ 25000 nM | – | – | – | < 1000 nM | < 1000 nM | < 1000 nM
16 | Cn1cc(-c2cnc3ccc(Nc4nnc(C5CCOC5)s4)nc3c2)cn1 (stereo not shown) [Example 0243, N-(7-(1-methyl-1H-pyrazol-4-yl)-1,5-naphthyridin-2-yl)-5-(tetrahydrofuran-3-yl)-1,3,4-thiadiazole-2-amine] | ≥ 25000 nM | – | – | – | < 1000 nM | < 1000 nM | < 1000 nM

Row | Structure (SMILES) | IC50 (CHO-K1 cells) | IC50 ([1]; 1.25 nmol/L ERK2, ATP 1 mmol/L) | IC50 (human PI3Kα protein; [3]) | IC50 [2, 4] | IC50 ([1]; ERK2 enzyme assay (2)) | IC50 (human PI3Kα protein) | IC50 ([2]; ERK2 enzyme assay (1))
17 | OCCCn1cc(-c2cnc3ccc(Nc4nnc(C5CCCC5)s4)nc3c2)cn1 [Example 0316, 3-(4-(6-((5-cyclopentyl-1,3,4-thiadiazol-2-yl)amino)-1,5-naphthyridin-3-yl)-1H-pyrazol-1-yl)propan-1-ol] | ≥ 25000 nM | – | – | – | < 1000 nM | < 1000 nM | < 1000 nM
18 | OCC(O)Cn1cc(-c2cnc3ccc(Nc4nnc(C5CCCC5)s4)nc3c2)cn1 (stereo not shown) [Example 0338, 3-(4-(6-((5-Cyclopentyl-1,3,4-thiadiazol-2-yl)amino)-1,5-naphthyridin-3-yl)-1H-pyrazol-1-yl)propane-1,2-diol] | ≥ 25000 nM | – | – | – | < 1000 nM | < 1000 nM | < 1000 nM
19 | CCCc1cnnc(Nc2ccc3ncc(-c4cnn(CCCN5CCCC5)c4)cc3n2)c1 [Example 0293] | ≥ 25000 nM | – | – | – | < 1000 nM | < 1000 nM | < 1000 nM
20 | COc1cncc(Nc2cnc3ccc(Nc4nnc(CC5CCCO5)s4)nc3c2)c1 (stereo not shown) [Example 0250, N^7-(5-methoxypyridin-3-yl)-N^2-(5-((tetrahydrofuran-2-yl)methyl)-1,3,4-thiadiazol-2-yl)-1,5-naphthyridine-2,7-diamine] | ≥ 25000 nM | – | – | – | < 1000 nM | < 1000 nM | < 1000 nM
21 | Cc1nn(CCCN2CCCC2)cc1-c1cnc2ccc(Nc3nnc(C(C)C)s3)nc2c1 [Example 0321, 5-isopropyl-N-(7-(3-methyl-1-(3-(pyrrolidin-1-yl)propyl)-1H-pyrazol-4-yl)-1,5-naphthyridin-2-yl)-1,3,4-thiadiazole-2-amine] | ≥ 25000 nM | – | – | – | < 1000 nM | < 1000 nM | < 1000 nM
22 | CCCc1nn(C)cc1-c1cnc2ccc(Nc3nnc(C(C)C)s3)nc2c1 [Example 0122] | ≥ 25000 nM | < 1000 nM | < 1000 nM | < 1000 nM | – | – | –
23 | c1nc2ccc(Nc3nnc(CC4CCCO4)s3)nc2cc1-c1cnn(CCCN2CCCC2)c1 (stereo not shown) [Example 0240] | ≥ 25000 nM | – | – | – | < 1000 nM | < 1000 nM | < 1000 nM
24 | CC1(C)COc2nnc(Nc3ccc4ncc(-c5cnn(CCCN6CCCC6)c5)cc4n3)cc21 [Example 0401, 5,5-Dimethyl-N-(7-(1-(3-(pyrrolidin-1-yl)propyl)-1H-pyrazol-4-yl)-1,5-naphthyridin-2-yl)-5,6-dihydrofuro[2,3-c]pyridazine-3-amine] | ≥ 25000 nM | – | – | – | < 1000 nM | < 1000 nM | < 1000 nM
25 | CC(C)c1cnnc(Nc2ccc3ncc(-c4cnn(CCN5CCOCC5)c4)cc3n2)c1 [Example 0382, N-(5-isopropylpyridazin-3-yl)-7-(1-(2-morpholinoethyl)-1H-pyrazol-4-yl)-1,5-naphthyridine-2-amine] | ≥ 25000 nM | – | – | – | < 1000 nM | < 1000 nM | < 1000 nM
26 | CN(C)c1cnnc(Nc2ccc3ncc(-c4cnn(CCCN5CCCC5)c4)cc3n2)c1 [Example 0403, N^5,N^5-dimethyl-N^3-(7-(1-(3-(pyrrolidin-1-yl)propyl)-1H-pyrazol-4-yl)-1,5-naphthyridin-2-yl)pyridazine-3,5-diamine] | ≥ 25000 nM | – | – | – | < 1000 nM | < 1000 nM | < 1000 nM
27 | c1nnc(Nc2ccc3ncc(-c4cnn(CCCN5CCCC5)c4)cc3n2)s1 [Example 0322] | ≥ 25000 nM | – | – | – | < 1000 nM | < 1000 nM | < 1000 nM
28 | FC1(F)CCN(CCCn2cc(-c3cnc4ccc(Nc5nnc(C6CCCC6)s5)nc4c3)cn2)C1 [Example 0352] | ≥ 25000 nM | – | – | – | < 1000 nM | < 1000 nM | < 1000 nM
29 | CC(C)c1cnnc(Nc2ccc3ncc(-c4cnn(CCC(C)(C)O)c4)cc3n2)c1 [Example 0474] | ≥ 25000 nM | – | – | – | < 1000 nM | < 1000 nM | < 1000 nM
30 | O=C(CCn1cc(-c2cnc3ccc(Nc4nnc(C5CCCC5)s4)nc3c2)cn1)N1CCCC1 [Example 0341, 3-(4-(6-((5-cyclopentyl-1,3,4-thiadiazol-2-yl)amino)-1,5-naphthyridin-3-yl)-1H-pyrazol-1-yl)-1-(pyrrolidin-1-yl)propan-1-one] | ≥ 25000 nM | – | – | – | < 1000 nM | < 1000 nM | < 1000 nM
31 | Cn1cc(-c2cnc3ccc(Nc4nnc(C5CCCO5)s4)nc3c2)cn1 (stereo not shown) [Example 0227] | ≥ 25000 nM | – | – | – | < 1000 nM | < 1000 nM | < 1000 nM
